Results: patent publication EP0665239A1, “Peptide derivatives of bactenecin endowed with antibacterial activity” (CONSIGLIO NAZIONALE DELLE RICERCHE, priority 1994, dated 1995)
Where two headings read alike, the source gives them in different places. No end group written: not given here.

Assays:
Format in all cases: cell-based
[1] = system: Enterobacter cloacae ATCC 13047
Experimental: (§1) The antibacterial activity of the peptides of this invention was evaluated by determining the minimal inhibitory concentration (MIC) of bacterial growth.
(§2) Each peptide was incubated in microtitration plates, at concentrations that decreased form 320 to 0.1 micrograms/ml, in which the wells contained a final volume of 0.1 ml of Mueller-Hinton broth with 3-5x10⁴ bacteria at the semi-logarithmic growth phase.
(§3) In each experiment, the MIC of Bac5 and Bac7 were also measured, for the purpose of comparison.
(§4) In these assays, the following bacterial strains were used: Escherichia coli ATCC 25922, Salmonella typhimurium ATCC 14028, Klebsiella pneumoniae ATCC 13883 and Enterobacter cloacae ATCC 13047.

[2] = system: Klebsiella pneumoniae ATCC 13883
Experimental: as §1, §2, §3, §4

[3] = system: Escherichia coli ATCC 25922
Experimental: as §1, §2, §3, §4

[4] = system: Salmonella typhimurium ATCC 14028
Experimental: as §1, §2, §3, §4

[5] = Klebsiella pneumoniae ATCC 13883, Mueller-Hinton broth, 3-5x10⁴ bacteria, 16 hours at 37° C
[6] = Salmonella typhimurium ATCC 14028, Mueller-Hinton broth, 3-5x10⁴ bacteria, 16 hours at 37° C
[7] = Escherichia coli ATCC 25922, Mueller-Hinton broth, 3-5x10⁴ bacteria, 16 hours at 37° C
[8] = Enterobacter cloacae ATCC 13047, Mueller-Hinton broth, 3-5x10⁴ bacteria, 16 hours at 37° C

Which MIC ([1]; ATCC 13047) does the source give for RFRPPIRRPPIRPPFYPPFRPPIRP [Peptide C] here?
The MIC was 0.8 to 1.6 µM.

What about the MIC ([1]; ATCC 13047, 16 h) of the same sequence?
The MIC was 2.5 to 5 µg/mL.

What about the MIC ([2]; ATCC 13883) of the same sequence?
The MIC was 0.8 µM.

And the MIC [2, 5]?
The MIC was 2.5 µg/mL.

What about the MIC ([3]; ATCC 25922) of the same sequence?
Its MIC is 0.8 to 1.6 µM.

What about the MIC ([3]; ATCC 25922, 16 h) of the same sequence?
Its MIC is 2.5 to 5 µg/mL.

What about the MIC ([4]; ATCC 14028) of the same sequence?
The MIC was 0.8 µM.

What about the MIC [4, 6] of the same sequence?
The MIC was 2.5 µg/mL.

How did the MIC ([1]; ATCC 13047) turn out when “RRIRPRPPRLPRPRPRPL [Peptide D, Arg-Arg-Ile-Arg-Pro-Arg-Pro-Pro-Arg-Leu-Pro-Arg-Pro-Arg-Pro-Arg-Pro-Leu]” was run?
Its MIC is 0.5 to 1.0 µM.

What about the MIC ([1]; ATCC 13047, 16 h) of the same sequence?
Its MIC is 1.2 to 2.5 µg/mL.

What about the MIC ([2]; ATCC 13883) of the same sequence?
The MIC was 0.2 to 0.5 µM.

What about the MIC ([2]; ATCC 13883, 16 h) of the same sequence?
Its MIC is 0.6 to 1.2 µg/mL.

What about the MIC ([3]; ATCC 25922) of the same sequence?
The MIC was 1.0 µM.

What about the MIC [3, 7] of the same sequence?
The MIC was 2.5 µg/mL.

What about the MIC ([4]; ATCC 14028) of the same sequence?
The MIC was 0.5 µM.

What about the MIC [4, 6] of the same sequence?
The MIC was 1.2 µg/mL.

Which MIC ([1]; Enterobacter cloacae ATCC 13047, MICs of Table 1 expressed in molar terms) does the source give for RRIRPRPPRLPRPRPRPLPFPRP [Peptide B] here?
Its MIC is 0.2 to 0.4 µM.

And the MIC [1, 8]?
Its MIC is 0.6 to 1.2 µg/mL.

What about the MIC ([2]; Klebsiella pneumoniae ATCC 13883, MICs of Table 1 expressed in molar terms) of the same sequence?
Its MIC is 0.2 to 0.4 µM.

And the MIC [2, 5]?
The MIC was 0.6 to 1.2 µg/mL.

And the MIC ([3]; Escherichia coli ATCC 25922, MICs of Table 1 expressed in molar terms)?
Its MIC is 0.4 to 0.8 µM.

And the MIC [3, 7]?
Its MIC is 1.2 to 2.5 µg/mL.

And the MIC ([4]; Salmonella typhimurium ATCC 14028, MICs of Table 1 expressed in molar terms)?
Its MIC is 0.2 to 0.4 µM.

And the MIC [4, 6]?
Its MIC is 0.6 to 1.2 µg/mL.

With “RRIRPRPPRLPRPRPRPLPFPRPGPRPIPRPLPFP [Peptide A]” as the sequence, how does the MIC ([1]; ATCC 13047) read?
The MIC was 0.15 µM.

What about the MIC [1, 8] of the same sequence?
The MIC was 0.6 µg/mL.

What about the MIC ([2]; ATCC 13883) of the same sequence?
The MIC was 0.15 to 0.3 µM.

What about the MIC ([2]; ATCC 13883, 16 h) of the same sequence?
Its MIC is 0.6 to 1.2 µg/mL.

What about the MIC ([3]; ATCC 25922) of the same sequence?
Its MIC is 0.3 µM.

What about the MIC [3, 7] of the same sequence?
The MIC was 1.2 µg/mL.

What about the MIC ([4]; ATCC 14028) of the same sequence?
The MIC was 0.15 to 0.3 µM.

What about the MIC ([4]; ATCC 14028, 16 h) of the same sequence?
Its MIC is 0.6 to 1.2 µg/mL.
